Measurements published in PubChem BioAssay (NCI).
Several values for one entry are separate records, joined by “and”; a condition that tells them apart may be missing. Equal values may be shown once.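 In this assay, cells in 96-well plates receive the compound at five concentrations for 48 hours. Endpoints are linearly interpolated between the surrounding concentrations. GI50 marks 50% less growth. TGI is the concentration that stops growth completely.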

Tests used:
Assay in all cases: DTP human tumour cell line panel, 48 h
ACHN renal = system: ACHN renal
K-562 leukemia = system: K-562 leukemia
HCT-15 colon = system: HCT-15 colon
SK-MEL-2 melanoma = system: SK-MEL-2 melanoma
A549 NSCLC = system: A549 NSCLC
SK-OV-3 ovarian = system: SK-OV-3 ovarian
NCI-H460 lung = system: NCI-H460 lung
CCRF-CEM leukemia = system: CCRF-CEM leukemia
SN12C renal = system: SN12C renal
OVCAR-4 ovarian = system: OVCAR-4 ovarian
UACC-62 melanoma = system: UACC-62 melanoma
UACC-257 melanoma = system: UACC-257 melanoma
UO-31 renal = system: UO-31 renal
OVCAR-8 ovarian = system: OVCAR-8 ovarian
NCI-H226 lung = system: NCI-H226 lung
RXF 393 renal = system: RXF 393 renal
COLO 205 colon = system: COLO 205 colon
BT-549 breast = system: BT-549 breast
HS 578T breast = system: HS 578T breast
HOP-62 NSCLC = system: HOP-62 NSCLC
IGROV1 ovarian = system: IGROV1 ovarian
MALME-3M melanoma = system: MALME-3M melanoma
NCI-H23 lung = system: NCI-H23 lung
NCI-H522 lung = system: NCI-H522 lung
KM12 colon = system: KM12 colon
SW-620 colon = system: SW-620 colon
SF-268 CNS = system: SF-268 CNS
OVCAR-3 ovarian = system: OVCAR-3 ovarian
PC-3 prostate = system: PC-3 prostate
EKVX NSCLC = system: EKVX NSCLC
MDA-MB-231 breast = system: MDA-MB-231 breast
SF-295 CNS = system: SF-295 CNS
MDA-MB-435 = system: MDA-MB-435
SK-MEL-28 melanoma = system: SK-MEL-28 melanoma
HCT-116 colon = system: HCT-116 colon
SF-539 CNS = system: SF-539 CNS
786-0 renal = system: 786-0 renal
HL-60(TB) leukemia = system: HL-60(TB) leukemia
SR leukemia = system: SR leukemia
A498 renal = system: A498 renal
U251 CNS = system: U251 CNS
M14 melanoma = system: M14 melanoma
NCI/ADR-RES ovarian = system: NCI/ADR-RES ovarian
HOP-92 NSCLC = system: HOP-92 NSCLC
TK-10 renal = system: TK-10 renal
DU-145 prostate = system: DU-145 prostate
RPMI-8226 leukemia = system: RPMI-8226 leukemia
SNB-19 CNS = system: SNB-19 CNS
SK-MEL-5 melanoma = system: SK-MEL-5 melanoma
MOLT-4 leukemia = system: MOLT-4 leukemia
SNB-75 CNS = system: SNB-75 CNS
HT29 colon = system: HT29 colon
LOX IMVI melanoma = system: LOX IMVI melanoma
T-47D breast = system: T-47D breast
MCF7 breast = system: MCF7 breast
CAKI-1 renal = system: CAKI-1 renal
OVCAR-5 ovarian = system: OVCAR-5 ovarian
HCC-2998 colon = system: HCC-2998 colon

CO[C@@H](C)Cn1c(=O)n(C)c2cnc3ccc(-c4cncc(C(C)(C)O)c4)cc3c21
GI50 (ACHN renal): 0.135 µM and 0.0975 µM
TGI (ACHN renal): > 100 µM
GI50 (K-562 leukemia): 0.302 µM and 0.132 µM
TGI (K-562 leukemia): > 100 µM
GI50 (HCT-15 colon): 0.141 µM and 0.0775 µM
TGI (HCT-15 colon): 23.2 µM and > 10 µM
GI50 (SK-MEL-2 melanoma): 0.105 µM
TGI (SK-MEL-2 melanoma): 0.494 µM
GI50 (A549 NSCLC): 0.0768 µM and 0.0535 µM
TGI (A549 NSCLC): 1.57 µM and > 3.22 µM
GI50 (SK-OV-3 ovarian): 0.0488 µM and 0.0424 µM
TGI (SK-OV-3 ovarian): 0.358 µM and 0.285 µM
GI50 (NCI-H460 lung): 0.143 µM and 0.0539 µM
TGI (NCI-H460 lung): > 100 µM
GI50 (CCRF-CEM leukemia): 0.203 µM and 0.0874 µM
TGI (CCRF-CEM leukemia): > 100 µM
GI50 (SN12C renal): 0.112 µM and 0.0544 µM
TGI (SN12C renal): 70 µM and > 10 µM
GI50 (OVCAR-4 ovarian): 0.105 µM and 0.0514 µM
TGI (OVCAR-4 ovarian): 0.676 µM and 0.667 µM
GI50 (UACC-62 melanoma): 0.0976 µM and 0.0394 µM
TGI (UACC-62 melanoma): 0.413 µM and 0.255 µM
GI50 (UACC-257 melanoma): 0.195 µM and 0.0932 µM
TGI (UACC-257 melanoma): 0.741 µM and 0.538 µM
GI50 (UO-31 renal): 0.0348 µM and 0.0237 µM
TGI (UO-31 renal): 0.346 µM and 0.336 µM
GI50 (OVCAR-8 ovarian): 0.154 µM and 0.0697 µM
TGI (OVCAR-8 ovarian): 2.9 µM and > 4.1 µM
GI50 (NCI-H226 lung): 0.0406 µM
TGI (NCI-H226 lung): 0.477 µM
GI50 (RXF 393 renal): 0.0416 µM and 0.0325 µM
TGI (RXF 393 renal): 0.341 µM and 0.216 µM
GI50 (COLO 205 colon): 0.145 µM and 0.0924 µM
TGI (COLO 205 colon): 1.51 µM and 1.49 µM
GI50 (BT-549 breast): 0.054 µM and 0.041 µM
TGI (BT-549 breast): 0.707 µM and 0.444 µM
GI50 (HS 578T breast): 0.0286 µM
TGI (HS 578T breast): 0.191 µM
GI50 (HOP-62 NSCLC): 0.126 µM and 0.081 µM
TGI (HOP-62 NSCLC): 1.39 µM and 1.41 µM
GI50 (IGROV1 ovarian): 0.0407 µM and 0.0303 µM
TGI (IGROV1 ovarian): 0.249 µM and 0.212 µM
GI50 (MALME-3M melanoma): 0.0584 µM and 0.0638 µM
TGI (MALME-3M melanoma): 0.317 µM and 0.48 µM
GI50 (NCI-H23 lung): 0.203 µM and 0.133 µM
TGI (NCI-H23 lung): 29.8 µM and > 6.67 µM
GI50 (NCI-H522 lung): 0.0513 µM
TGI (NCI-H522 lung): 0.653 µM
GI50 (KM12 colon): 0.326 µM and 0.122 µM
TGI (KM12 colon): 12.7 µM and > 10 µM
GI50 (SW-620 colon): 0.248 µM and 0.11 µM
TGI (SW-620 colon): 16.4 µM and > 10 µM
GI50 (SF-268 CNS): 0.14 µM and 0.0796 µM
TGI (SF-268 CNS): 16.8 µM and > 5.75 µM
GI50 (OVCAR-3 ovarian): 0.119 µM and 0.0656 µM
TGI (OVCAR-3 ovarian): 6.49 µM and > 3.39 µM
GI50 (PC-3 prostate): 0.161 µM and 0.0445 µM
GI50 (EKVX NSCLC): 0.0691 µM and 0.0669 µM
TGI (EKVX NSCLC): 0.847 µM and 1.4 µM
GI50 (MDA-MB-231 breast): 0.166 µM and 0.044 µM
TGI (MDA-MB-231 breast): 3.87 µM and 2.12 µM
GI50 (SF-295 CNS): 0.0495 µM and 0.0373 µM
TGI (SF-295 CNS): 0.422 µM and 0.328 µM
GI50 (MDA-MB-435): 0.146 µM and 0.0718 µM
TGI (MDA-MB-435): 3.44 µM and 1.16 µM
GI50 (SK-MEL-28 melanoma): 0.143 µM and 0.0773 µM
TGI (SK-MEL-28 melanoma): 2.5 µM and 0.573 µM
GI50 (HCT-116 colon): 0.303 µM and 0.187 µM
TGI (HCT-116 colon): 10.8 µM and > 7.65 µM
GI50 (SF-539 CNS): 0.105 µM and 0.0525 µM
TGI (SF-539 CNS): 0.696 µM and 0.414 µM
GI50 (786-0 renal): 0.059 µM and 0.0418 µM
TGI (786-0 renal): 2.2 µM and 1.99 µM
GI50 (HL-60(TB) leukemia): 0.717 µM and 0.361 µM
TGI (HL-60(TB) leukemia): 9.78 µM and > 6.74 µM
GI50 (SR leukemia): 0.153 µM and 0.113 µM
TGI (SR leukemia): 14.9 µM and > 10 µM
GI50 (A498 renal): 0.0273 µM and 0.0109 µM
TGI (A498 renal): 0.124 µM and 0.0591 µM
GI50 (U251 CNS): 0.127 µM and 0.0633 µM
TGI (U251 CNS): 12.6 µM and > 10 µM
GI50 (M14 melanoma): 0.149 µM and 0.111 µM
TGI (M14 melanoma): 5.1 µM and > 4.68 µM
GI50 (NCI/ADR-RES ovarian): 1.06 µM and 0.384 µM
TGI (NCI/ADR-RES ovarian): 14 µM and > 10 µM
GI50 (HOP-92 NSCLC): 0.109 µM and 0.0279 µM
TGI (HOP-92 NSCLC): 0.644 µM and 0.188 µM
GI50 (TK-10 renal): 0.12 µM and 0.0694 µM
TGI (TK-10 renal): 0.719 µM and 0.536 µM
GI50 (DU-145 prostate): 0.0935 µM and 0.0591 µM
TGI (DU-145 prostate): > 100 µM
GI50 (RPMI-8226 leukemia): 0.186 µM and 0.059 µM
TGI (RPMI-8226 leukemia): 2.06 µM and 0.968 µM
GI50 (SNB-19 CNS): 0.143 µM and 0.0773 µM
TGI (SNB-19 CNS): 7.79 µM and > 10 µM
GI50 (SK-MEL-5 melanoma): 0.103 µM and 0.0992 µM
TGI (SK-MEL-5 melanoma): 0.408 µM and 0.418 µM
GI50 (MOLT-4 leukemia): 0.196 µM and 0.163 µM
TGI (MOLT-4 leukemia): 1.77 µM and 4.1 µM
GI50 (SNB-75 CNS): 0.0235 µM and 0.0217 µM
TGI (SNB-75 CNS): 0.264 µM and 0.163 µM
GI50 (HT29 colon): 0.0933 µM and 0.0756 µM
TGI (HT29 colon): 12.7 µM and > 6.87 µM
GI50 (LOX IMVI melanoma): 0.0526 µM and 0.0376 µM
TGI (LOX IMVI melanoma): 1.27 µM and 1.32 µM
GI50 (T-47D breast): 0.0409 µM and 0.0284 µM
TGI (T-47D breast): 0.378 µM and 0.208 µM
GI50 (MCF7 breast): 0.14 µM and 0.0593 µM
TGI (MCF7 breast): 47.9 µM and > 10 µM
GI50 (CAKI-1 renal): 0.0505 µM
TGI (CAKI-1 renal): 0.512 µM
GI50 (OVCAR-5 ovarian): 0.191 µM and 0.0956 µM
TGI (OVCAR-5 ovarian): > 100 µM
GI50 (HCC-2998 colon): 0.257 µM and 0.0885 µM
TGI (HCC-2998 colon): 13.8 µM and > 10 µM
